The target of one series is T1, Hb in human whole blood (Homo sapiens, UniProt P68871+P69905).
T1 construct: measured in human, dog, and mouse whole blood; from tissue; host or cells: human whole blood
Kind of series: Whole blood oxygen affinity assay (Hemox analyzer), human blood. The note with it: 1 mM compound, 1 hour at 25 C, relative to DMSO. From the text: Whole Blood Oxygen Affinity Assay
Oxygen affinity is a marker of the ability of Hb to bind and release oxygen in solution. It can be determined in whole blood by measuring the percentage of oxygenated and deoxygenated Hb present at a given oxygen concentration. Oxygen affinity is expressed as the p50, the partial pressure of oxygen at which 50% of the Hb in solution has oxygen bound, or the p20, the partial pressure of oxygen at which 20% of the Hb in solution has oxygen bound.
To determine the effects of compounds of the invention on oxygen affinity the p50 and p20 were measured in human, dog, and mouse whole blood using a Hemeox Analyzer (TCS Scientific). The blood was spiked with a compound of the invention to a concentration of 1 mM and incubated for 1 hour at 25 C with constant rotation. A concentration of 1 mM of compound was selected to approximate 20% hemoglobin occupancy in whole blood. Controls with the same concentration of DMSO, but no compound were incubated in the same way at the same time. Following incubation, samples were immediately assayed for oxygen affinity using the Hemox analyzer. Fifty μL of blood sample was diluted into 5 mL of hemox buffer (TCS Scientific), which had been pre-incubated to 37 C. Following dilution, samples were loaded into the analysis chamber, and fully oxygenated using compressed air. Once samples had reached an pO2 of >150 torr, the measurement was initiated by switching to N2, and the percent oxyhemoglobin as a function of partial pressure was recorded. The p20 and p50 of each sample were recorded from the instrument readout. Data are reported as the percent (%) change relative to DMSO according to the following calculations: […]

Series [1] deals with T2, purified sickle cell hemoglobin (HbS) (Homo sapiens, UniProt P68871+P69905, E7V).
T2 construct: HbS was obtained from the blood of homozygous S/S patients; from tissue; host or cells: red blood cells of homozygous S/S patients
In words: Binding affinity to purified HbS by Surface Plasmon Resonance (SPR). As to conditions: crosslinked biotinylated HbS, 1:1 binding model. A digest of the protocol:
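Patient-derived HbS, purified and crosslinked between beta subunits (Lys82-Lys82), biotinylated and captured on streptavidin sensor at 4000–5000 RU. Running buffer 100 mM potassium phosphate pH 7.5, 1 mM EDTA, 0.1 mg/mL BSA, 1% DMSO; 2 min association, ≥5 min dissociation, ≥4 concentrations; Kd from 1:1 model fit.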

Another series deals with T3, HbS (Homo sapiens, UniProt P68871+P69905, E7V).
T3 construct: HbS was obtained from the blood of homozygous S/S patients; from tissue; host or cells: red blood cells of homozygous S/S patients
Kind of series: 'R'-'T' assay (conversion of oxy HbS to deoxy HbS under deoxygenating conditions). Format: biochemical. As to conditions: 50% inhibition of HbS 'R'-'T' conversion; 3 uM HbS, <1% O2. Put shortly:
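Oxy HbS diluted to 3 µM in 100 mM potassium phosphate pH 7.4, incubated 1 h at room temperature with compound, then held under <1% O2 for 2 h. Conversion followed by background-corrected 415/430 nm absorbance ratio at 0, 90 and 120 min; percent effect normalized to tucaresol, IC50 from concentration series.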

The subject of a further series is Townes SCD mice. In words: Chronic dosing study (BID, 15 days) in Townes SCD mice. As to conditions: 100 mg/kg BID for 15 days, n=4-5, Townes SCD mice, vs vehicle. In kind it is in vivo, mouse. As to the method:
Following 15 days of dosing, blood samples were collected from all animals to run in the Hemeox analyzer to generate oxygen affinity curves, complete blood analysis was performed using Idexx hematology Analyzer, and cell sickling assessed as described before. Soluble Vascular Adhesion Molecule 1 levels (sVCAM1) were assessed by Enzyme linked immunosorbent assay (ELISA) from R&D systems. Results are presented below in Tables 7, 8 and 9.

Series [2] can be described thus: Single dose study in sickle Townes mice: exposure in whole blood. In kind it is in vivo. As to conditions: male, Townes (sickle cell disease model), mouse, SCD mice, n=3. As to the method: In Vivo Studies Mouse Model
The effect of the compounds of the invention was evaluated in-male sickle Townes mice in a single dose study. Compounds of the invention were administered in amounts set out in Tables 7, 8 and 9 that follow by oral gavage. Control mice received vehicle. Blood (50 μL) was drawn at 0.5 h, 1 h, 4 h, 7 h, 10 h, and 24 h. To measure exposure in whole blood, 20 μL sample was used. Blood drawn at 0.5 h was also evaluated for cell sickling.

The values that follow come from US11014908B2, “Chemical compounds” (Pfizer Inc., priority 2018, dated 2021).

Broadly, the Kd is the equilibrium constant for the complex coming apart. High values mean lower affinity, low ones higher affinity. The term IC50 denotes the concentration that gives 50% inhibition. Read a low IC50 as greater potency in that assay. Consider `C[C@H](Oc1cc2cc(F)ccc2nc1N)c1cc(C(=O)O)ccc1-n1cccn1` [Example 4, 3-{(1S)-1-[(2-amino-6-fluoroquinolin-3-yl)oxy]ethyl}-4-(1H-pyrazol-1-yl)benzoic Acid], for which, at Hb in human whole blood, the “Reduction in p20 (%) Human” value is 40 ± 4% and the “Reduction in p50 (%) Human” value came to 7 ± 3%. The same compound showed a Kd in series [1] of 100 nM. In addition, at HbS, the IC50 was found to be 4920 nM.

In the case of `C[C@H](Oc1cc2cc(C(N)=O)ccc2nc1N)c1cc2[nH]ncc2cc1-n1cccn1` [Example 61, 2-amino-3-{(1S)-1-[5-(1H-pyrazol-1-yl)-1H-indazol-6-yl]ethoxy}quinoline-6-carboxamide], on Hb in human whole blood, the “Reduction in p20 (%) Human” value is recorded as 14 ± 8% and the “Reduction in p50 (%) Human” value worked out at 1 ± 6%. Further, in series [1], the Kd was 36 nM. Also, at HbS, inhibition was half-maximal at 5450 nM (IC50).

Take `C[C@H](Oc1cc2cc(C(N)=O)ccc2nc1N)c1ncc(F)cc1-n1cccn1` [Example 27, 2-amino-3-{(1S)-1-[5-fluoro-3-(1H-pyrazol-1-yl)pyridin-2-yl]ethoxy}quinoline-6-carboxamide]: at Hb in human whole blood, the “Reduction in p20 (%) Human” value is reported as 70 ± 4% and the “Reduction in p50 (%) Human” value is recorded as 26 ± 1%. The compound also yielded a Kd in series [1] of 183 nM. Further, in the series with Townes SCD mice, the “Hb, Change (increase)” value is 54.4 ± 8.7% increase; the “Hematocrit, Change (increase)” value came out at 42.0 ± 12.7% increase; the “RBC sickling, Change (decrease)” value is reported as 19.2 ± 5.4% decrease; the “RBCs, Change (increase)” value is reported as 51.9 ± 8.3% increase. Moreover, in the series on Townes SCD mice, the “Reticulocytes, Change (decrease)” value amounted to 18.4 ± 5.5% decrease; the “p20, Change (decrease)” value was determined as 10.8 ± 3.8% decrease; the “p50, Change (decrease)” value worked out at 7.89 ± 3.36% decrease. In series [2] (single dose 5 mg/kg oral gavage), this compound registered a concentration at 0.5 h of 7.4 µM. The compound further yielded a concentration at 0.5 h in series [2] (single dose 50 mg/kg oral gavage) of 208 µM. The IC50 against HbS was found to be 5360 nM.

In series [1], `C[C@H](Oc1cc2cc(F)cc(F)c2nc1N)c1cc(C(=O)O)c(F)cc1-n1cccn1` [Example 23, 5-{(1S)-1-[(2-amino-6,8-difluoroquinolin-3-yl)oxy]ethyl}-2-fluoro-4-(1H-pyrazol-1-yl)benzoic Acid] yielded a Kd of 43 nM. In addition, 4010 nM corresponded to half-maximal inhibition on HbS (IC50).

`C[C@H](Oc1cc2cc(F)cc(F)c2nc1N)c1ncc(F)cc1-n1cccn1` [Example 38, 6,8-difluoro-3-{(1S)-1-[5-fluoro-3-(1H-pyrazol-1-yl)pyridin-2-yl]ethoxy}quinolin-2-amine] came in with a Kd in series [1] of 45 nM. This compound also displayed an IC50 against HbS of 3620 nM.

The compound `C[C@H](Oc1cc2cc(F)ccc2nc1N)c1cc2c(cnn2CCO)cc1-n1cccn1` [Example 73, 2-[6-{(1S)-1-[(2-amino-6-fluoroquinolin-3-yl)oxy]ethyl}-5-(1H-pyrazol-1-yl)-1H-indazol-1-yl]ethanol] displayed a Kd in series [1] of 20 nM. The compound further displayed an IC50 against HbS of 4510 nM.

Compound `C[C@H](Oc1cc2c(F)ccc(F)c2nc1N)c1ncc(F)cc1-n1cccn1` [Example 43, 5,8-difluoro-3-{(1S)-1-[5-fluoro-3-(1H-pyrazol-1-yl)pyridin-2-yl]ethoxy}quinolin-2-amine] registered a Kd in series [1] of 20 nM. This compound also registered an IC50 at HbS of 4630 nM.

In series [1], `C[C@H](Oc1cc2cc(F)ccc2nc1N)c1nc(OCCO)ccc1-n1cccn1` [Example 41, 2-{[6-{(1S)-1-[(2-amino-6-fluoroquinolin-3-yl)oxy]ethyl}-5-(1H-pyrazol-1-yl)pyridin-2-yl]oxy}ethanol] showed a Kd of 44 nM. For the same compound, the IC50 against HbS stood at 3830 nM.

`C[C@H](Oc1cc2cc(F)ccc2nc1N)c1cc(C(N)=O)c(F)cc1-n1cccn1` [Example 1, 5-{(1S)-1-[(2-amino-6-fluoroquinolin-3-yl)oxy]ethyl}-2-fluoro-4-(1H-pyrazol-1-yl)benzamide] returned a Kd in series [1] of 20 nM. Moreover, at HbS, it took 4500 nM to reach half-maximal inhibition (IC50).

Regarding `C[C@H](Oc1cc2cc(F)ccc2nc1N)c1cc(OCC(=O)O)ccc1-n1cccn1` [Example 15, [3-{(1S)-1-[(2-amino-6-fluoroquinolin-3-yl)oxy]ethyl}-4-(1H-pyrazol-1-yl)phenoxy]acetic Acid], the Kd in series [1] came out at 63 nM. This compound also came in with a 50% inhibitory concentration (IC50) on HbS of 3890 nM.
